# Legend:
# [1] = tested on: HSV-1-PATTON; experiment: Viral plaque titration in human fetal fibroblasts (HFF); format: cell-based, Herpes simplex virus; details: Example 1, drug µg/ml: G* 1.2, BVDU 0.11, ACG 2.0, PAA 250, same in combinations; for VT (virus titre): HFF cells, no-drug control VT 147; for FTR (fold titre reduction): ratio of control virus titre to that of the test
# Description: (§1) Human fetal fibroblasts (HFF) derived from fetal tissues were used in this study. Cells were grown and maintained in Basal Medium Eagle (BME) supplemented with 0.112% sodium bicarbonate, 2 mML- glutamine, 2 mg% Neomycin and 20% (vol/vol) calf serum.
# (§2) A viral plaque titration method (Roizman and Roane, 1961) was used to determine the titer of the HSV strain. Tissue culture dishes (35 by 10 mm, Corning) were seeded with cells and used for assays when they were approximately 75% monolayer. Volumes (0.2 ml) of logarithmic dilutions of the virus strain were inoculated onto each of two tissue culture dishes and adsorbed for 1 hr with intermittent shaking, the inoculum was removed and 2 ml of 20% BME containing 0.5% human immune serum globulin was added. After a 48 h incubation period at 36°C in a 5% C02 atmosphere, the overlay m'edium was removed, and the cell sheets were stained with a 0.05% aqueous crystal violet solution. The plaque numbers were counted with the aid of a Nikon profile projector which magnified the dishes 10x. Duplicate results were averaged, and the number of plaque-forming units (PFU) was calculated. The virus titre is thus expressed as a number of plaque forming units to be seen after growth under these conditions.
# (§3) In order to make comparisons between the activities of the various drugs and combinations, experiments were conducted by plaque titration to determine for each drug its viral ED-50 (i.e. the concentration thereof which inhibits HSV plaque formation by 50% in the HFF cells, as compared with cell cultures in the absence of the drug). For this purpose, tissue culture dishes (35 by 10 mm) with HFF cell monolayers at 75% confluence were inoculated with approximately 50 plaque-forming units of virus per 0.2 ml, and the virus was allowed to adsorb for 1 hr with intermittent shaking. After removal of the inoculum, 2 ml of 20% BME with 0.5% immune globulin and threefold dilutions of the appropriate drug were added to duplicate dishes. One set of dishes received no drug and was later used for the "no-drug control". After a 48 h incubation period at 36°C in a 5% C02 atmosphere, the overlay medium was removed, the cells were stained as described above, and plaques were counted. After averaging the counts of duplicate plates, the fraction of plaques emerging in the presence of each drug dilution was calculated as a percent of the control. Each drug titration was plotted on semilogarithmic graph paper, with the number of plaques per dish as the vertical axis and the drug concentration as the horizontal axis. The viral ED50 was calculated as that amount of drug per ml of overlay medium that inhibited plaque numbers by 50%, compared to a control (no drug), and this was read off the graphic plot of the data.
# (§4) Three combinations of the drugs were then tested for activity by viral plaque titration, at concentrations which were multiples of the ED50 of the individual drugs. When G^*, BVDU or ACG was present, a concentration ten times that of its ED50 was used in the combination. This was intended to ensure a concentration sufficiently high to limit the numbers of partially drug-resistant virus plaques to a small fraction, in respect of each drug of the combination. In respect of PAA, a concentration of five times the ED50 was used, to avoid cell toxicity problems. The drugs were individually plaque-titrated at the same concentrations, for comparison purposes.
# (§5) The results are given in the first Table headed "HSV-1-PATTON". The column headed "VT" gives the virus titre, expressed in plaque-forming units (PFU) per ml, x10^5; of course, the lower the figure, the greater the inhibitory, anti-viral effect of the tested drug (D). The column headed "FTR" gives the fold titre reduction which is the ratio of virus titre for the control, i.e. no drug, to that of the given test. […]
# [2] = tested on: HSV-1-227; experiment: as above; format: cell-based, Herpes simplex virus; details: Example 3, drug µg/ml: G* 2.0, PAA 80, combination 2.0+80; for VT (virus titre): HFF cells, no-drug control VT 28; for FTR (fold titre reduction): ratio of control virus titre to that of the test
# Description: as §1, §2, §3, §4, §5
# [3] = tested on: HSV-2-EL4; experiment: as above; format: cell-based, Herpes simplex virus; details: for VT (virus titre): HFF cells, no-drug control VT 750; for FTR (fold titre reduction): ratio of control virus titre to that of the test
# [4] = tested on: HSV-2-EL6; experiment: as above; format: cell-based, Herpes simplex virus; details: for VT (virus titre): HFF cells; for FTR (fold titre reduction): ratio of control virus titre to that of the test
# [5] = tested on: HSV-2-EL1; experiment: as above; format: cell-based, Herpes simplex virus; details: Example 3, drug µg/ml: G* 2.0, PAA 76, combination 2.0+76; for VT (virus titre): HFF cells, no-drug control VT 170; for FTR (fold titre reduction): ratio of control virus titre to that of the test
# [6] = tested on: HSV-2-EL3; experiment: as above; format: cell-based, Herpes simplex virus; details: Example 3, drug µg/ml: G* 2.0, PAA 82, combination 2.0+82; for VT (virus titre): HFF cells, no-drug control VT 77; for FTR (fold titre reduction): ratio of control virus titre to that of the test
# [7] = tested on: HSV-1-EL11; experiment: as above; format: cell-based, Herpes simplex virus; details: Example 3, drug µg/ml: G* 0.4, PAA 25, combination 0.4+25; for VT (virus titre): HFF cells, no-drug control VT 8.0; for FTR (fold titre reduction): ratio of control virus titre to that of the test
# [8] = tested on: HSV-1-PATTON; experiment: as above; format: cell-based, Herpes simplex virus; details: Example 2, drug µg/ml: G* 0.7, PFA 80, combination 0.7+80; for VT (virus titre): HFF cells, no-drug control VT 3400; for FTR (fold titre reduction): ratio of control virus titre to that of the test
# [9] = cited from earlier work
# [10] = Example 2, drug µg/ml: G* 3.0, PFA 80, combination 3.0+80
# [11] = Example 3, drug µg/ml: G* 2.0, PAA 90, combination 2.0+90
# [12] = Example 2, no-drug control VT 150, drug µg/ml: G* 0.7, PFA 80, combination 0.7+80
# [13] = Example 2, drug µg/ml: G* 0.7, PFA 80, combination 0.7+80
# [14] = Example 3, no-drug control VT 180, drug µg/ml: G* 0.6, PAA 90, combination 0.6+90
# [15] = Example 3, drug µg/ml: G* 0.6, PAA 90, combination 0.6+90
smiles,measurement,setting,value
"Nc1nc2c(ncn2COCCO)c(=O)[nH]1 [ACG, 9 - [2 - hydroxyethoxymethyl]guanine]",VT (virus titre),[1],"4.7 PFU per ml, x10^5"
same,FTR (fold titre reduction),[1],31
"O=c1[nH]c(=O)n([C@H]2C[C@H](O)[C@@H](CO)O2)cc1/C=C/Br [BVDU, bromovinyl-deoxyuridine]",VT (virus titre),[1],"2.1 PFU per ml, x10^5"
same,FTR (fold titre reduction),[1],70
"Nc1nc2c(ncn2COC(CO)CO)c(=O)[nH]1 [G*, 9 - [[2 - hydroxy - 1 - (hydroxymethyl)ethoxy]methyl]guanine]",VT (virus titre),[2],"0.25 PFU per ml, x10^5"
same,FTR (fold titre reduction),[2],110
same,VT (virus titre),[1],"1.1 PFU per ml, x10^5"
same,FTR (fold titre reduction),[1],130
same,VT (virus titre),[3]; [10],"21 PFU per ml, x10^5"
same,FTR (fold titre reduction),[3]; [10],36
same,VT (virus titre),[3]; [11],"5.9 PFU per ml, x10^5"
same,FTR (fold titre reduction),[3]; [11],130
same,VT (virus titre),[4]; [12],"40 PFU per ml, x10^5"
same,FTR (fold titre reduction),[4]; [13],3.8
same,VT (virus titre),[4]; [14],"0.90 PFU per ml, x10^5"
same,FTR (fold titre reduction),[4]; [15],200
same,VT (virus titre),[5],"8.9 PFU per ml, x10^5"
same,FTR (fold titre reduction),[5],19
same,VT (virus titre),[6],"10 PFU per ml, x10^5"
same,FTR (fold titre reduction),[6],7.7
same,VT (virus titre),[7],"0.37 PFU per ml, x10^5"
same,FTR (fold titre reduction),[7],22
same,VT (virus titre),[8],"140 PFU per ml, x10^5"
same,FTR (fold titre reduction),[8],24
"O=C(O)CP(=O)(O)O [PAA, phosphonoacetic acid]",VT (virus titre),[2],"1.1 PFU per ml, x10^5"
same,FTR (fold titre reduction),[2],26
same,VT (virus titre),[1],"3.2 PFU per ml, x10^5"
same,FTR (fold titre reduction),[1],50
same,VT (virus titre),[3]; [11],"0.10 PFU per ml, x10^5"
same,FTR (fold titre reduction),[3]; [11],"7,500"
same,VT (virus titre),[4]; [14],"31.0 PFU per ml, x10^5"
same,FTR (fold titre reduction),[4]; [15],5.8
same,VT (virus titre),[5],"0.34 PFU per ml, x10^5"
same,FTR (fold titre reduction),[5],500
same,VT (virus titre),[6],"0.36 PFU per ml, x10^5"
same,FTR (fold titre reduction),[6],210
same,VT (virus titre),[7],"2.8 PFU per ml, x10^5"
same,FTR (fold titre reduction),[7],2.9
same,drug concentrations in topical formulation reported as skin irritant,[9],> 100000 µM
"O=C(O)P(=O)(O)O [PFA, phosphonoformic acid]",VT (virus titre),[3]; [10],"0.28 PFU per ml, x10^5"
same,FTR (fold titre reduction),[3]; [10],"2,700"
same,VT (virus titre),[4]; [12],"48 PFU per ml, x10^5"
same,FTR (fold titre reduction),[4]; [13],3.1
same,VT (virus titre),[8],"750 PFU per ml, x10^5"
same,FTR (fold titre reduction),[8],4.5
same,skin harm of topical formulation,[9]; drug concentrations in excess of 100 mM,do not appear harmful

# — patent publication EP0101441B1, “ANTI-VIRAL COMPOSITIONS” (SYNTEX (U.S.A.) INC., priority 1982, dated 1983)
